Reference: patent US10280170B2, “Substituted 4,5,6,7-tetrahydro-pyrazolo[1,5-a]pyrazine derivatives and 5,6,7,8-tetrahydro-4H-pyrazolo[1,5-a][1,4]diazepine derivatives as Ros1 inhibitors” (Janssen Pharmaceutica NV, priority 2014, dated 2019)
Read-outs that look alike come from different tables or passages of the source.

What was measured:
[1] = target: Ba/F3 cells containing Ros1 with a mutation at the gatekeeper residue (L2026M) (Homo sapiens, UniProt P08922, L2026M, cells depend on it, form not given); experiment: Ba/F3-Ros1 cell proliferation assay, L2026M gatekeeper mutant; type: cell-based, murine; conditions: without IL-3
Procedure, shortened: (§1)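 Alamar Blue read-out (resazurin, ex. 540 nm, em. 590 nm, 4 h at 37 °C) after 24 h compound exposure of 20000 Ba/F3-Ros1 cells per well. Cells carry WT, gatekeeper L2026M or crizotinib-resistant G2032R Ros1; medium RPMI-1640, 10% FBS, 2 mM L-Glutamine.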

[2] = target: T1, Ba/F3 cells containing Ros1 wild-type protein (Homo sapiens, UniProt P08922, cells depend on it, form not given); experiment: Ba/F3-Ros1 cell proliferation assay, wild-type Ros1; type: cell-based, murine; conditions: without IL-3
T1 construct: The background only speaks of 'a number of different unrelated proteins' and names SLC34A2-ROS1 for HCC78 cells
Procedure, shortened: as §1

Ros1 enzyme = target: T2, Ros1 enzyme (Homo sapiens, UniProt P08922); experiment: Ros1 enzymatic assay; type: biochemical; conditions: Ros1 enzymatic assay; read-out: ROS1 pIC50 (converted)
T2 construct: 0.5 μg/ml Ros1 enzyme
Procedure, shortened: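 Ros1 kinase, IRS-Tide peptide, 20 μM ATP + [33P]ATP (substrate-mix concentrations); Tris-HCl pH7.5, 10 mM MgCl2, 1 mM EGTA, 0.01% Tween-20; 120 min RT; EDTA/excess ATP stop, streptavidin beads 15 min, LEADseeker imaging.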

[3] = tested on: Ba/F3 cells containing Ros1 wild-type protein + IL-3; experiment: Ba/F3-Ros1 cell proliferation counter-screen, wild-type protein in the presence of 10 ng/ml murine IL-3; type: cell-based; conditions: Mus musculus, BaF3, 24 h, read-out: BaF3-ROS1 + IL3 pIC50 (converted)
Procedure, shortened: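 Read-out is resazurin-based Alamar Blue fluorescence (RFU, ex 540 nm, em 590 nm), measured 4 h after dye addition. Before that, wild-type Ros1 Ba/F3 cells had been cultured 24 h with compound in the presence of 10 ng/ml murine IL-3.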

[4] = tested on: HCC78 non-small cell lung cancer cells; experiment: HCC78 cell proliferation assay; type: cell-based; conditions: for EC50: Homo sapiens, HCC78, 96 h, read-out: HCC-78 PROL pEC50 (converted)
Procedure, shortened: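 HCC78 NSCLC cells (~1000/well) in RPMI-1640 with 10% FBS were treated 24 h after seeding and exposed to compound for 4 days at 37 °C. Viability was read by MTT, with absorbance at 538 nm after DMSO/glycine solubilization.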

[5] = tested on: Ros pY2274 in HCC78 cells; experiment: pROS1 immunofluorescence assay in HCC78 cells; type: cell-based; conditions: Homo sapiens, read-out: HCC78-pRos1 pIC50 (converted)
Experimental: pROS1 Immunofluorescence Assay in HCC78 Cells
Approximately 20000 HCC78 non-small cell lung cancer cells in 180 μl of cell culture medium (RPMI-1640, 10% FBS, 2 mM L-Glutamine, 10 mM Hepes, 1 mM sodium pyruvate, 4.5 g/L glucose, 1.5 g/L sodium bicarbonate, 25 μg/ml Gentamycin) were seeded in each well of a 96-well polystyrene, poly-D-lysine coated plate and incubated at 37° C. and 5% CO2. After 24 hours, compounds were diluted in cell culture medium from which 20 μl was added to the wells containing cells and incubated for 4 hours at 37° C. and 5% CO2. The medium was removed and the cells were fixed by adding 100 μl of 5% formaldehyde in TBS (tris-buffered saline) (50 mM Tris.HCl, pH 7.4, 150 mM NaCl) and incubating for 15 minutes at room temperature. The formaldehyde was removed and replaced with methanol for 10 minutes at room temperature, after which the cells were washed 3 times with TBS containing 1% Triton X-100 and incubated in Odyssee (Li-Cor) blocking buffer for 1 hour at room temperature. The cells were then incubated with the primary rabbit antibody directed against Ros pY2274 (cst-3078) diluted 1/200 in blocking buffer for 24 hours at room temperature. The cells were washed three times with TBS containing 0.1% Triton X-100 and incubated with a secondary anti-rabbit antibody conjugated to the fluorescent dye Alexafluor 680 in blocking buffer for 1 hour at room temperature. The cells were washed three times with TBS containing 0.1% Triton X-100 and left to dry before measuring RFUs (Relative Fluorescence Units) at 700 nm using a fluorescence imager.
The same experiment was performed using total Ros1 antibody (sc-6347) diluted 1/1000 instead of Ros1 pY2274 antibody and an anti-goat antibody conjugated to IRDye800cw as a secondary antibody. RFUs were measured at […]. The signals from total Ros1 detection were used to normalize the Ros1 pY2274 values.

[6] = target: Ba/F3 cells containing Ros1 with G2032R mutation (Homo sapiens, UniProt P08922, G2032R, cells depend on it, form not given); experiment: Ba/F3-Ros1 cell proliferation assay, G2032R crizotinib-resistance mutant; type: cell-based, murine; conditions: without IL-3
Experimental: Ba/F3-Ros1 Cell Proliferation Assay
This assay was carried out with Ba/F3 cells containing three different versions of Ros1: the wild-type protein, protein with a mutation at the gatekeeper residue (L2026M), and protein with a mutation identified in a tumor from a patient that became resistant to crizotinib (Xalkori®) treatment (G2032R). Compounds were solubilized in 100% DMSO (dimethyl sulfoxide) and sprayed into polystyrene, tissue culture treated 384-well plates. A 50 μl volume of cell culture medium (phenol red free RPMI-1640, 10% FBS (fetal bovine serum), 2 mM L-Glutamine) containing 20000 Ba/F3-Ros1 cells was added to each well and the plates were placed in an incubator at 37° C. and 5% CO2. After 24 hours, 10 μl of Alamar Blue solution (0.5 mM K3Fe(CN)6, 0.5 mM K4Fe(CN)6, 0.15 mM Resazurin and 100 mM Phosphate Buffer) was added to the wells, incubated for 4 hours at 37° C. and 5% CO2 before RFU's (Relative Fluorescence Units) (ex. 540 nm., em. 590 nm.) were measured in a fluorescence plate reader.

[7] = counter-screen, wild-type, 10 ng/ml murine IL-3
[8] = HCC78 cells, 4 hours, Ros pY2274 normalized to total Ros1

Chain of Ba/F3 cells containing Ros1 with G2032R mutation (P08922 whole entry G2032R, form open): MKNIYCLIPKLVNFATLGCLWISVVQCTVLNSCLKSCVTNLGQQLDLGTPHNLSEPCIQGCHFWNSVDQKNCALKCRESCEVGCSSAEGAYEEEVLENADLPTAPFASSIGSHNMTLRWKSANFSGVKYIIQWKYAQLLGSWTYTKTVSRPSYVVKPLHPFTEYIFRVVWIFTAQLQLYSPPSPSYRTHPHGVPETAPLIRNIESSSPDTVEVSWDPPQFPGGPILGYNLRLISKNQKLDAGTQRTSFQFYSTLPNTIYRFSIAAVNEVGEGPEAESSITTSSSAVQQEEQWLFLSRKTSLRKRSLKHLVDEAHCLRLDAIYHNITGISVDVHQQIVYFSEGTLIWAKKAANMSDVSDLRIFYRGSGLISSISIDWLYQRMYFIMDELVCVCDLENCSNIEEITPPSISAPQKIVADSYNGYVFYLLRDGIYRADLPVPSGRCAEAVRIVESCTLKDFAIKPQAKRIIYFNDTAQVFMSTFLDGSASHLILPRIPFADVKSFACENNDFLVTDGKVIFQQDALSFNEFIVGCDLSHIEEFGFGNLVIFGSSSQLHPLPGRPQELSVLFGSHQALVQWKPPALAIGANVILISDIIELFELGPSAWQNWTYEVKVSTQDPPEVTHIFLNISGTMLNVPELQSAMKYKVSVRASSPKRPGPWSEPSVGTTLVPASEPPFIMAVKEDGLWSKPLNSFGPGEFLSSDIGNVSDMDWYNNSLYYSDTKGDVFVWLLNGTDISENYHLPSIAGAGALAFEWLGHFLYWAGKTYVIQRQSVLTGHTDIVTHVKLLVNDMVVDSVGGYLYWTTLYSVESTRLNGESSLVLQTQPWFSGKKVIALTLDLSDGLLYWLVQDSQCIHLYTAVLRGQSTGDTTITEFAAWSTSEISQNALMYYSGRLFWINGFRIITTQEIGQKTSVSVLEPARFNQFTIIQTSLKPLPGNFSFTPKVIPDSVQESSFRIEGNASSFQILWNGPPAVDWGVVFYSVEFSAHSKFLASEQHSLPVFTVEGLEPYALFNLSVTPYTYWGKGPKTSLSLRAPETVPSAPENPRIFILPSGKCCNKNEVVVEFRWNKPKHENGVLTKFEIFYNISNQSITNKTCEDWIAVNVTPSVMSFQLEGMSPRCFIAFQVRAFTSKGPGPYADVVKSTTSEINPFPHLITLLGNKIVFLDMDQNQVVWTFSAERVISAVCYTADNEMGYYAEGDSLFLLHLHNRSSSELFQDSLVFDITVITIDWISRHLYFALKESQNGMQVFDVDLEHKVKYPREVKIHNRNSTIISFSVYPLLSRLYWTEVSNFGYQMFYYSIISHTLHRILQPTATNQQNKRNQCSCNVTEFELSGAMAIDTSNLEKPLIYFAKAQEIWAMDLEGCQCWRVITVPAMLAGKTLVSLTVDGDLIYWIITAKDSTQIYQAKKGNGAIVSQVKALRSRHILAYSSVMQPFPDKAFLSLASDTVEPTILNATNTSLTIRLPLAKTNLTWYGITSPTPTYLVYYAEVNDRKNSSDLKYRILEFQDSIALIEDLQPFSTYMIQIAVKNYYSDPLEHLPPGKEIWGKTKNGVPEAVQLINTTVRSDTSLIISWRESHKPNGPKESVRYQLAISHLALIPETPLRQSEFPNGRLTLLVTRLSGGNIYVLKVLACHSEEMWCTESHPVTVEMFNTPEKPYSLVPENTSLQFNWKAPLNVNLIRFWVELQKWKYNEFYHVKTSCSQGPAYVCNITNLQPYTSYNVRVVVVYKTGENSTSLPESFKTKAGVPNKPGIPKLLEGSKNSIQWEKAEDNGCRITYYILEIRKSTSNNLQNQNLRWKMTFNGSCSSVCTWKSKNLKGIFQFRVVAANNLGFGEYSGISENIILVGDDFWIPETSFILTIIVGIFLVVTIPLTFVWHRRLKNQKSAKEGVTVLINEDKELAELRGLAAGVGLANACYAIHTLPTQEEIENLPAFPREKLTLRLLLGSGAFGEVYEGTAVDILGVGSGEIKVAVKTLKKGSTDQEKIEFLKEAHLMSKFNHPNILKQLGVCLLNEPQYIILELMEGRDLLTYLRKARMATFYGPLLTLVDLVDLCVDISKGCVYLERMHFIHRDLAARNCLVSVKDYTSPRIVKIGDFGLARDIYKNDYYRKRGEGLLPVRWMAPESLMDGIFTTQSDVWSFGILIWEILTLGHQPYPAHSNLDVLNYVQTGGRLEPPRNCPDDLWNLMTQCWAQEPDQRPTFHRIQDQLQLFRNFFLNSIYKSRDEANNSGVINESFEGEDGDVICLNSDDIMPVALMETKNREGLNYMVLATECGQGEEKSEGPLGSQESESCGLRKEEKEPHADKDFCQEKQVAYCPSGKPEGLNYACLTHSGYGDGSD
Chain of Ba/F3 cells containing Ros1 with a mutation at the gatekeeper residue (L2026M) (P08922 whole entry L2026M, form open): as the sequence (P08922 whole entry G2032R, form open) above, with L2026M, R2032G counted along it
T1 sequence (P08922 whole entry, stated change not applied): as the sequence (P08922 whole entry G2032R, form open) above, with R2032G counted along it
T2 sequence (P08922 28-2347): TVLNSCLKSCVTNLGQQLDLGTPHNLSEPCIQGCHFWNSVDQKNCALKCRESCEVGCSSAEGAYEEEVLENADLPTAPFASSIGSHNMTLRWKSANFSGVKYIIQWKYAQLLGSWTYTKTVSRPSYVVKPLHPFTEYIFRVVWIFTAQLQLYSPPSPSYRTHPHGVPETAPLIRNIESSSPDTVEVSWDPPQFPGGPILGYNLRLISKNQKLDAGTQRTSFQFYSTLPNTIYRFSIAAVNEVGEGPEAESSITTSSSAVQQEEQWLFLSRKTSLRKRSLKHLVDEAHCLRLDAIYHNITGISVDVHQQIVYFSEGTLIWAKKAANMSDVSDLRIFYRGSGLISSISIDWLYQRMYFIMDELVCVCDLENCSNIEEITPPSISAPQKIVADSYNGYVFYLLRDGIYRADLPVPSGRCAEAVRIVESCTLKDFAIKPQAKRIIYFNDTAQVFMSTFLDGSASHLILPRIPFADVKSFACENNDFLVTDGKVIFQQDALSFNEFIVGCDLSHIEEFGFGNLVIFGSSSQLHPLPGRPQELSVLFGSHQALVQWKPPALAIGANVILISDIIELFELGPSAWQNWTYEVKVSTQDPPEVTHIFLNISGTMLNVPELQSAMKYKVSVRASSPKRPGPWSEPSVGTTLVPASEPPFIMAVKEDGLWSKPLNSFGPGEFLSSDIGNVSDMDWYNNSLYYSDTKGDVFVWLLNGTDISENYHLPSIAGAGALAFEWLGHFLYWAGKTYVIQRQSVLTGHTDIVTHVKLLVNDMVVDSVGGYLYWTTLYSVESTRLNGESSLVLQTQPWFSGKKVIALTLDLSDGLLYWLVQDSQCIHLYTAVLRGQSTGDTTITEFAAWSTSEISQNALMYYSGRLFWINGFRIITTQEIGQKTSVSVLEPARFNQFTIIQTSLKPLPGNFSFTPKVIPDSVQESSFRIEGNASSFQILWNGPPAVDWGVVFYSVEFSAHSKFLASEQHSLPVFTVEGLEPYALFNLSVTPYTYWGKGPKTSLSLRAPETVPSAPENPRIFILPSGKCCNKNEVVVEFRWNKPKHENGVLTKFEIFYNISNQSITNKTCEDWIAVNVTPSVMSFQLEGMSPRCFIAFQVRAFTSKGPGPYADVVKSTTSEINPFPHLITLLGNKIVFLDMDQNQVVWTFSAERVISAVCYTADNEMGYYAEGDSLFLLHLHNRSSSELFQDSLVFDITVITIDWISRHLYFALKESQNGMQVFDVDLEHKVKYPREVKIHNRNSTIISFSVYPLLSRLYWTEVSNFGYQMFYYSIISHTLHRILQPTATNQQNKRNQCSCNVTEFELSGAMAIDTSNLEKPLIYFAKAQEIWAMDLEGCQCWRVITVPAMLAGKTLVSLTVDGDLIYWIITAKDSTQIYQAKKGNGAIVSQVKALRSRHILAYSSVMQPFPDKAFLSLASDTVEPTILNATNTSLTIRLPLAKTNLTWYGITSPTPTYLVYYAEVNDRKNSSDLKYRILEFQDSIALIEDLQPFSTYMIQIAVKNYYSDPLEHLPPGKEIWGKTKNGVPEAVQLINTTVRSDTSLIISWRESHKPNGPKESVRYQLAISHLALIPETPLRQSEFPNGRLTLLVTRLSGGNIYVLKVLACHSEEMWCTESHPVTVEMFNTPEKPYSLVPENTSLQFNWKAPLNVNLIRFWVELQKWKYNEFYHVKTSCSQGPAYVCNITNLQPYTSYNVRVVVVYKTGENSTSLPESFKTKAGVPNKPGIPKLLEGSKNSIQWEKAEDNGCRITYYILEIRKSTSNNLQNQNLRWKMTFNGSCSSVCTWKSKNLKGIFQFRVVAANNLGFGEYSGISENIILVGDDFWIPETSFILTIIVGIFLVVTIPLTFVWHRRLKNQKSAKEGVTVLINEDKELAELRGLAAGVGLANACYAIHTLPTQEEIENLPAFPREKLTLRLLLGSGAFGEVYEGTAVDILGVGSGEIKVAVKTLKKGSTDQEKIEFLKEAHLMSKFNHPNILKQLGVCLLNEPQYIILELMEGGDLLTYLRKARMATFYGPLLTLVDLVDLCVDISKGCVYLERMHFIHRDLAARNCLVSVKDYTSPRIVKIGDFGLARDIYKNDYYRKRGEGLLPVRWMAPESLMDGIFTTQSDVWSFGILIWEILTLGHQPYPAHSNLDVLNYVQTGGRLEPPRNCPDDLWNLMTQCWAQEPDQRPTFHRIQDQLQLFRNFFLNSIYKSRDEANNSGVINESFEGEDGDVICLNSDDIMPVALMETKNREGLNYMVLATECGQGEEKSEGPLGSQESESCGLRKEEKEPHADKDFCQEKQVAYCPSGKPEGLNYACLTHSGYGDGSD

Row | SMILES | Ba/F3 Ros1 L2026M (-IL-3) pIC50 [1] | BaF3-ROS1-IL3 pIC50 [2] | IC50 (Ros1 enzyme) | CC50 [3] | EC50 [4] | IC50 ([5]; HCC78, 4 h) | melting point | CC50 [3, 7] | EC50 ([4]; HCC78 cells, 4 days, MTT) | IC50 [5, 8] | Ba/3 Ros1 G2032R (-IL-3) pIC50 [6] | HCC-78 PROL pEC50 ([4]; HCC78 cells, 4 days, MTT)
1 | O=C1NCCn2nc(-c3ccncc3)c(-c3ccc(OCc4ccc(C5CC5)nc4)cc3)c21 [Compound 3] | 7.0 | 7.3 | 79.4 nM | > 10000 nM | 794 nM | 79.4 nM | 276 °C |  |  |  |  | 
2 | O=C1NC2(CC2)Cn2nc(-c3ccncc3)c(-c3ccc(OCc4ccc(C5CC5)cc4)cc3)c21 [Compound 5] | 7.5 | 7.6 | 25.1 nM | > 10000 nM | 316 nM | 50.1 nM | 239 °C |  |  |  |  | 
3 | COc1cc(-c2c(-c3ccncc3)nn3c2C(=O)NCC3)cnc1OCc1ccc(C(C)C)cc1 [Compound 8] | 7.8 | 7.9 | 6.31 nM | > 10000 nM | 39.8 nM | 25.1 nM | 135 °C |  |  |  |  | 
4 | CC(C)(O)c1ccc(COc2ccc(-c3c(-c4ccncc4)nn4c3C(=O)NCC4)cc2)cc1 [Compound 9] | 6.2 | 6.4 | 631 nM |  |  |  | 290 °C | > 10000 nM | 2000 nM | 2510 nM |  | 
5 | CC(C)c1ccc(COc2ccc(-c3c(-c4ccncc4)nn4c3C(=O)NCC4)nc2)cc1 [Compound 12] | 6.7 | 6.5 | 316 nM | > 10000 nM | 794 nM | 501 nM | 84 °C |  |  |  |  | 
6 | CC(C)c1ccc(COc2ccc(-c3c(-c4ccncc4)nn4c3C(=O)NCC4)cc2C#N)cc1 [Compound 26] | 6.5 | 6.6 | 398 nM | > 10000 nM | 794 nM | 631 nM | 235 °C |  |  |  |  | 
7 | COc1cc(-c2c(-c3ccncc3)nn3c2C(=O)N(C)CC3)ccc1OCc1ccc(C(C)C)cc1 [Compound 33] | 7.4 | 7.7 | 10 nM | > 10000 nM | < 31.6 nM | 12.6 nM | 151 °C |  |  |  |  | 
8 | CC(C)c1ccc(COc2ccc(-c3c(-c4ccncc4)nn4c3C(=O)N(CC(O)CO)CC4)cc2)cc1 (stereo not shown) [Compound 44] | 6.9 | 7.4 | 50.1 nM |  |  |  | 192 °C |  |  |  | 6.8 | 6.6
9 | CC(O)CN1CCn2nc(-c3ccncc3)c(-c3ccc(OCc4ccc(C(C)C)cc4)cc3)c2C1=O (stereo not shown) [Compound 47] | 7.5 | 7.3 | 50.1 nM |  |  |  |  | > 10000 nM | 79.4 nM |  | 6.9 | 
10 | O=C1NCCn2nc(-c3ccncc3)c(-c3ccc(OCc4ccc(C(F)(F)F)cc4)cc3)c21 [Compound 119] | 6.9 | 7.2 | 200 nM | > 10000 nM | 398 nM | 316 nM | 280 °C |  |  |  |  | 
11 | O=C1NCCn2nc(-c3ccncc3)c(-c3ccc(OCC#Cc4ccccc4)cc3)c21 [Compound 142] | 6.4 | 6.9 | 126 nM | > 10000 nM | 398 nM | 126 nM | 245 °C |  |  |  |  | 
12 | COc1cc(-c2c(-c3ccnc(N)c3)nn3c2C(=O)NCC3)ccc1OCc1ccc(C(C)C)cc1 [Compound 149] | 7.4 | 7.6 | 7.94 nM | > 10000 nM | < 31.6 nM | 12.6 nM | 179 °C |  |  |  |  | 
13 | CC(C)c1ccc(COc2ccc(-c3c(-c4ccncn4)nn4c3C(=O)N(C(C)C)CC4)cc2)cc1 [Compound 160] | 7.3 | 7.3 | 39.8 nM |  |  |  | 166 °C | > 10000 nM | 100 nM | 31.6 nM |  | 
14 | CC(C)c1ccc(COc2ccc(-c3c(-c4ccncn4)nn4c3C(=O)N(CCN)CC4)cc2)cc1 [Compound 165] | 6.5 | 6.7 | 200 nM |  |  |  | 154 °C | > 10000 nM | 1260 nM | 631 nM |  | 
15 | CC(C)c1ccc(COc2ccc(-c3c(-c4ccncc4)nn4c3CN(C)CC4)cc2)cc1 [Compound 185] |  | 6.3 | 126 nM |  |  |  | 120 °C | > 10000 nM | 794 nM | 158 nM |  | 
16 | CC1Cn2nc(-c3ccncc3)c(-c3ccc(OCc4ccc(C5CC5)cc4)cc3)c2C(=O)N1 (stereo not shown) [Compound 189] |  | 7.1 | 31.6 nM | > 10000 nM | 200 nM | 39.8 nM | 249 °C |  |  |  |  | 
17 | CC(C)c1ccc(C2CCc3cc(-c4c(-c5ccncc5)nn5c4C(=O)N(CCO)CC5)ccc3O2)cc1 (stereo not shown) [Compound 200] | 6.3 | 7.3 | 126 nM | > 10000 nM | 316 nM |  |  |  |  |  | 6.6 | 
18 | CC(C)c1ccc(COc2ccc(-c3c(-c4ccncn4)nn4c3C(=O)N(C)CC4)cc2)cc1 [Compound 214] | 7.3 | 7.4 | 31.6 nM |  |  |  | 160 °C | > 10000 nM | 100 nM | 31.6 nM |  | 
19 | O=C1NCCCn2nc(-c3ccncc3)c(-c3ccc(OCc4ccc(C5CC5)cc4)cc3)c21 [Compound 228] |  | 6.3 | 398 nM |  |  |  | 235 °C | > 10000 nM | 2000 nM | 501 nM |  | 
